# Read-outs that look alike come from different tables or passages of the source. Marks after values point to notes of the source that are not given here.
# Columns and labels:
# [1] = pH dependent aqueous solubility, shake-flask method; type: physicochemical; details: aqueous solution, thermodynamic from solid, saturated concentration 1 mM
# Description: The aqueous solubility of each compound was determined by the conventional shake-flask method at a saturated concentration of 1 mM. The flask (vial) was shaken for 3 hrs at ambient temperature, and then centrifuged. The supernatant was analyzed by HPLC with UV detection for solubility determination. In general, a higher aqueous solubility is more desirable for drug candidates.
# [2] = Human plasma protein binding, equilibrium dialysis; type: in vitro ADME; details: pooled human plasma, 37° C., about 6 hours, 1 μM drug, read-out: Protein binding (human plasma) % Free
# Description: The human plasma protein binding was determined using the Equilibrium Dialysis method. Dialysis was conducted with pooled human plasma at 37° C. for approximately 6 hours at a drug concentration of 1 μM. At the end of the dialysis, buffer samples from the buffer-side of the dialysis cell were collected and analyzed by LC/MS/MS for free drug concentration. For NNRTIs, a lower protein binding is more desirable.
# CYP3A4 = biological target: T1, CYP3A4 (Homo sapiens, UniProt P08684); assay: CYP450 inhibition, CYP3A4/BFC screening kit; type: in vitro ADME
# T1 construct: purchased BD Biosciences
# Description: (§1) In vitro CYP450 inhibition screening allows for the prediction of potential drug-drug interactions. […] Potency and rank order of the inhibition can be assessed by determination of the IC50 values for a particular isozyme.
# (§2) CYP3A4 inhibition was screened using the CYP3A4/BFC high throughput inhibitor screening kit (BD Biosciences), CYP2D6 inhibition was screened using the CYP2D6/AMMC high throughput inhibitor screening kit (BD Biosciences), and CYP2C9 inhibition was screened using the P450-Glo™ Assay kit (Promega).
# CYP2D6 = biological target: T2, CYP2D6 (Homo sapiens, UniProt P10635); assay: CYP450 inhibition, CYP2D6/AMMC screening kit; type: in vitro ADME
# T2 construct: purchased BD Biosciences
# Description: as §1, §2
# [3] = Metabolic stability in human liver microsomes; type: in vitro ADME; details: 10 μM, 1 mg/mL microsomes, 37° C.
# Description: (§3) The metabolic stability assay is to evaluate the stability of test compound in biological matrices. Data are useful in terms of understanding and predicting the elimination mechanisms of the test compound. CYP450-dependent metabolism of drugs can also vary widely from one species to another. Evaluating in vitro metabolism of a drug by liver microsomes from multiple species allows the comparison of metabolism in animal species to that of humans. This can help identify the most relevant animal model for PK and toxicology studies. The metabolic stability of a test compound was evaluated in vitro in liver microsomes of the rat, dog, monkey, and human. 10 μM of the test compound was pre-incubated for 5 min at 37° C. with 1 mg/mL liver microsomes in 0.1M Tris buffer, pH 7.4 containing 5 mM MgCl2 and 0.1 mM EDTA. Following pre-incubation, NADPH (final concentration of 3 mM) was added to start the reaction and samples incubated for 0 and 1 or 2 hours. After terminating the reaction, the supernatant was analyzed by HPLC-UV or LC/MS/MS for the disappearance of the parent and formation of metabolite(s). The %parent remaining was the peak area ratio of the 1 or 2 hr sample to the time 0 sample. In general, less metabolism (higher % parent values) is more desirable.
# [4] = Metabolic stability in rat liver microsomes; type: in vitro ADME; details: 10 μM, 1 mg/mL microsomes, 37° C.
# Description: as §3
# [5] = Metabolic stability in dog liver microsomes; type: in vitro ADME; details: 10 μM, 1 mg/mL microsomes, 37° C.
# Description: as §3
# [6] = Metabolic stability in monkey liver microsomes; type: in vitro ADME; details: 10 μM, 1 mg/mL microsomes, 37° C.
# Description: as §3
# [7] = PK and oral bioavailability in the rat; type: in vivo, Sprague-Dawley rats; details: IV, 1.0 mg/kg
# Description: (§4) The pharmacokinetics of a test compound was evaluated in Sprague-Dawley rats and Beagle dogs. A typical PK study involved dosing of 2 to 3 animals via a single IV bolus injection at 1 mg/kg and another 3 animals via a single oral gavage at 5 mg/kg. Blood samples were collected at various time points over a 24-hr period. Plasma was separated and analyzed for test compound and its metabolite(s) by LC/MS/MS. PK parameters were calculated from the plasma concentration—time profile using a noncompartmental method. Oral bioavailability (F) was calculated based on dose-normalized AUC values from oral and IV administration. Higher oral bioavailability values are better.
# [8] = PK and oral bioavailability in the dog; type: in vivo, Beagle dogs; details: for half-life: PEG400, read-out: T½ (converted)
# Description: as §4
# CYP2C9 = biological target: T3, CYP2C9 (Homo sapiens, UniProt P11712); assay: CYP450 inhibition, CYP2C9 P450-Glo assay kit; type: in vitro ADME
# T3 construct: purchased Promega
# Description: as §1, §2
# [9] = test system: mutant forms such as K103N/M184V/NAMS and K103N/Y181C/M184V/NAMS; assay: MDRC4 and CNDO cell-based assays versus other mutant forms; set-up: species or system HIV; details: Human immunodeficiency virus 1, read-out: EC50 values
# [10] = pH 1, simulated gastric fluid, pH1, ambient temperature, read-out: Aqueous solubility pH1
# [11] = pH 3, aqueous buffer, pH3, ambient temperature, read-out: Aqueous solubility pH3
# [12] = pH 7, aqueous buffer, pH7, ambient temperature, read-out: Aqueous solubility pH7
# [13] = pH 9, aqueous buffer, pH9, ambient temperature, read-out: Aqueous solubility pH9
# [14] = Beagle, plasma, IV, 1.0 mg/kg, PEG400
# [15] = Beagle, plasma, PO, 5.0 mg/kg, PEG400
# T1 sequence (P08684 whole entry): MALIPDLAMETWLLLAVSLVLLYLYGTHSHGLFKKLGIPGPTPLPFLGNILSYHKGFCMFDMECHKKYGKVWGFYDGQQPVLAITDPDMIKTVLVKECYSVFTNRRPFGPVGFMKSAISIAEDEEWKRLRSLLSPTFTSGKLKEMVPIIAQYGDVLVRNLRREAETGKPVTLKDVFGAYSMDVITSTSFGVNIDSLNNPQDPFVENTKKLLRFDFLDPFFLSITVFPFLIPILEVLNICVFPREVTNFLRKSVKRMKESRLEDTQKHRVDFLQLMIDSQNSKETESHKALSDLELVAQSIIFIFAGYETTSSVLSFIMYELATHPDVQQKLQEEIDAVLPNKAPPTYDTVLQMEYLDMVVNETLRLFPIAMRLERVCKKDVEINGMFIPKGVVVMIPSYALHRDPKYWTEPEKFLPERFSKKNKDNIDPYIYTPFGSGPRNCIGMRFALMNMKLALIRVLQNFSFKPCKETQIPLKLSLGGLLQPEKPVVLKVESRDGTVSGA
# T2 sequence (P10635 whole entry): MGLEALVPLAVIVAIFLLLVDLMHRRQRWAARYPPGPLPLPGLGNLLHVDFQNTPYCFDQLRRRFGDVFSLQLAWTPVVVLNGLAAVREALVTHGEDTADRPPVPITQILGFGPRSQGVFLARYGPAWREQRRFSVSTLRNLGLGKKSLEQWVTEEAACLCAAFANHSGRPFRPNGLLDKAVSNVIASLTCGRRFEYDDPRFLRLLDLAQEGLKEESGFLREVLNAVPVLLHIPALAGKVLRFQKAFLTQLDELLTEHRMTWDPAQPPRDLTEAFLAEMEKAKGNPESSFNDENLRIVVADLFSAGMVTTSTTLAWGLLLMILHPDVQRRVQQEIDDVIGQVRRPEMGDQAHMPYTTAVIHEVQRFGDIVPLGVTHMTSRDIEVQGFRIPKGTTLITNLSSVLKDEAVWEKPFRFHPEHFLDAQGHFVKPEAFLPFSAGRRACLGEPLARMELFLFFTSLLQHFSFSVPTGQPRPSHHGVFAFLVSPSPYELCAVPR
# T3 sequence (P11712 whole entry): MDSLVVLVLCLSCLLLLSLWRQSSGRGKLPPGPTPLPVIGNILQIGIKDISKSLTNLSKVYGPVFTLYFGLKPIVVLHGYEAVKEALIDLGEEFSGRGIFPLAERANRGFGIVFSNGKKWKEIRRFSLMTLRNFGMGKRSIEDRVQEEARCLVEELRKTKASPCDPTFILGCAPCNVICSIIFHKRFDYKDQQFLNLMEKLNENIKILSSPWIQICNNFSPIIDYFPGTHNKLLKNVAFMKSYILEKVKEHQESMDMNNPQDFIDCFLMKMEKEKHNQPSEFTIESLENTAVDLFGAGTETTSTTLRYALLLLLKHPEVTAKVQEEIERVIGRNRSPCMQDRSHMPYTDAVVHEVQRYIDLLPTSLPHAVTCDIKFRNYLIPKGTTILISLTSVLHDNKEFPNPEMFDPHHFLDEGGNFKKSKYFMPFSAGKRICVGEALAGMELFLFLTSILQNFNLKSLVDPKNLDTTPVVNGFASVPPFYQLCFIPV
compound,measurement,setting,value
COP(=O)(C1=C(C(=O)NCc2ccncc2)N=C2C=CC(Cl)=CC21)c1cc(C)cc(C)c1 (stereo not drawn) [Compound N],solubility at 3 h,[1]; [10],> 1000 µM
same,solubility at 3 h,[1]; [11],231 µM
same,solubility at 3 h,[1]; [12],2.1 µM
same,solubility at 3 h,[1]; [13],1.7 µM
same,"fraction unbound at 6 h, 1 μM",[2],0.002
same,IC50,CYP3A4,660 nM
same,IC50,CYP2D6,2040 nM
same,"Metabolic stability in liver microsomes % Parent after 1 hr incubation, Human",[3]; 1 hr (footnote *),22%*
same,"Metabolic stability in liver microsomes % Parent after 1 hr incubation, Rat",[4]; 1 hr (footnote *),1%*
same,"Metabolic stability in liver microsomes % Parent after 1 hr incubation, Dog",[5]; 1 hr (footnote *),24%*
same,"Metabolic stability in liver microsomes % Parent after 1 hr incubation, Monkey",[6]; 1 hr (footnote *),1%*
same,AUCinf/Dose,[7]; PEG400,125.9
same,CI,[7]; PEG400,133.2 mL/min/kg
same,AUC(0-inf),"[7]; Sprague-Dawley, plasma, PEG400",126 ng·h/mL
same,AUC(0-t),"[7]; Sprague-Dawley, plasma, PEG400",108 ng·h/mL
same,Cmax,"[7]; Sprague-Dawley, plasma, PEG400",119 ng/mL
same,half-life,"[7]; Sprague-Dawley, plasma, PEG400, read-out: T½ (converted)",0.9 h
same,Vd,"[7]; Sprague-Dawley, plasma, PEG400, read-out: Vss",9.59 L/kg
same,AUC(0-inf),[8]; [14],970 ng·h/mL
same,AUC(0-t),[8]; [14],924 ng·h/mL
same,Cmax,[8]; [14],407 ng/mL
same,half-life,"[8]; Beagle, plasma, IV, 1.0 mg/kg",4.2 h
same,Vd,"[8]; Beagle, plasma, IV, 1.0 mg/kg, PEG400, read-out: Vss",4.08 L/kg
same,AUC(0-inf),[8]; [15],139 ng·h/mL
same,AUC(0-t),[8]; [15],116 ng·h/mL
same,Cmax,[8]; [15],60.9 ng/mL
same,Tmax,[8]; [15],0.7 h
same,half-life,"[8]; Beagle, plasma, PO, 5.0 mg/kg",2.8 h
same,AUCinf/Dose,"[8]; IV, 1.0 mg/kg, PEG400",970.1
same,CI,"[8]; IV, 1.0 mg/kg, PEG400",19.872 mL/min/kg
same,AUCinf/Dose,"[8]; PO, 5.0 mg/kg, PEG400",27.7
same,F,"[8]; PO, 5.0 mg/kg, PEG400, oral bioavailability",2.9%
COP(=O)(C1=C(C(=O)NCc2ccncc2)N=C2C=CC(Cl)=C(F)C21)c1cc(C)cc(C)c1 (stereo not drawn) [Compound O],solubility at 3 h,[1]; [10],820 µM
same,solubility at 3 h,[1]; [11],590 µM
same,solubility at 3 h,[1]; [12],9.1 µM
same,solubility at 3 h,[1]; [13],10.1 µM
same,"fraction unbound at 6 h, 1 μM",[2],0.009
same,IC50,CYP3A4,810 nM
same,IC50,CYP2D6,1350 nM
same,IC50,CYP2C9,5350 nM
same,"Metabolic stability in liver microsomes % Parent after 2 hrs, Human",[3],15%
same,"Metabolic stability in liver microsomes % Parent after 2 hrs, Rat",[4],2%
same,"Metabolic stability in liver microsomes % Parent after 2 hrs, Dog",[5],29%
same,"Metabolic stability in liver microsomes % Parent after 2 hrs, Monkey",[6],1%
COP(=O)(C1=C(C(=O)NCc2ccncc2)N=C2C=CC(Cl)=CC21)c1cc(C)cc(F)c1 (stereo not drawn) [Compound P],solubility at 3 h,[1]; [10],> 1000 µM
same,solubility at 3 h,[1]; [11],724 µM
same,solubility at 3 h,[1]; [12],24 µM
same,solubility at 3 h,[1]; [13],33.8 µM
same,"fraction unbound at 6 h, 1 μM",[2],< 0.005
same,IC50,CYP3A4,770 nM
same,IC50,CYP2D6,2010 nM
same,IC50,CYP2C9,1680 nM
same,"Metabolic stability in liver microsomes % Parent after 2 hrs, Human",[3],3%
same,"Metabolic stability in liver microsomes % Parent after 2 hrs, Rat",[4],0%
same,"Metabolic stability in liver microsomes % Parent after 2 hrs, Dog",[5],20%
same,"Metabolic stability in liver microsomes % Parent after 2 hrs, Monkey",[6],3%
"CCOC(=O)c1c(P(=O)(OCC)c2ccccc2)c2cc(Cl)ccc2n1S(=O)(=O)c1ccccc1 (stereo not drawn) [Example 3, Ethyl 5-chloro-3-[ethoxy(phenyl)phosphoryl]-1-(phenylsulfonyl)-1H-indole-2-carboxylate]",EC50,[9],1.3 to 447 nM

# — patent US7534809B2, “Phospho-indoles as HIV inhibitors” (priority 2004, dated 2009)
